Laboratory results published in ChEMBL document CHEMBL1201862, “PubChem BioAssay data set” (2004).
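Five compound concentrations were applied to cells in 96-well plates for 48 hours; endpoints were derived by simple linear interpolation of the resulting dose-response curve. Abbreviation: GI50, concentration required for 50% inhibition of growth.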 The source made the active and inactive calls. Rule as the data show it: active = GI50 up to about 1.1 µM and inactive = higher.

Experiments:
Experiment in all cases: NCI tumour cell line growth inhibition, 48 h
UACC-62 = system: UACC-62
CAKI-1 = system: CAKI-1
PC-3 = system: PC-3
CCRF-CEM = system: CCRF-CEM
HCT-116 = system: HCT-116
SK-MEL-2 = system: SK-MEL-2
M14 = system: M14
SNB-19 = system: SNB-19
HT-29 = system: HT-29
SK-OV-3 = system: SK-OV-3
COLO 205 = system: COLO 205
HCC 2998 = system: HCC 2998
SF-539 = system: SF-539
MOLT-4 = system: MOLT-4
MDA-N = system: MDA-N
EKVX = system: EKVX
OVCAR-5 = system: OVCAR-5
MCF7 = system: MCF7
OVCAR-4 = system: OVCAR-4
OVCAR-8 = system: OVCAR-8

Measured: GI50

CCOc1cc(C2SCC(=O)N2c2ccc(Oc3ccc(Cl)cc3)c(Cl)c2)ccc1O (stereo not given)
inactive: UACC-62 16.4 µM | CAKI-1 17.3 µM | PC-3 16.6 µM | CCRF-CEM 13.7 µM | HCT-116 12.2 µM | SK-MEL-2 14 µM | M14 23.5 µM | SNB-19 17.8 µM | HT-29 17.1 µM | SK-OV-3 21.6 µM | COLO 205 22.5 µM | HCC 2998 17.9 µM | SF-539 16.1 µM | MOLT-4 18.1 µM | MDA-N 23.1 µM | EKVX 18 µM | OVCAR-5 20.2 µM | MCF7 25.1 µM | OVCAR-4 16 µM | OVCAR-8 17.7 µM

COc1ccc(OC)c(/C=N/N=C2\C(=O)Nc3c(Cl)cc(Cl)cc32)c1
inactive: UACC-62 55.6 µM | CAKI-1 71.3 µM | PC-3 38.8 µM | CCRF-CEM 59.7 µM | HCT-116 52.4 µM | SK-MEL-2 21.2 µM | M14 68.4 µM | SNB-19 > 100 µM | HT-29 63.4 µM | SK-OV-3 72.6 µM | COLO 205 > 100 µM | HCC 2998 > 100 µM | SF-539 38 µM | MOLT-4 23.8 µM | MDA-N 20 µM | EKVX 8.67 µM | OVCAR-5 > 100 µM | MCF7 46.1 µM | OVCAR-4 38.2 µM | OVCAR-8 61 µM

Cc1ccc(S(=O)(=O)NC2C(=O)c3ccccc3C(=O)C2n2ccnc2)cc1 (stereo not given)
inactive: UACC-62 33.1 µM | CAKI-1 > 100 µM | PC-3 > 100 µM | CCRF-CEM 20 µM | HCT-116 20.4 µM | SK-MEL-2 > 100 µM | M14 > 100 µM | SNB-19 > 100 µM | HT-29 > 100 µM | SK-OV-3 > 100 µM | COLO 205 71 µM | HCC 2998 > 100 µM | SF-539 > 100 µM | MOLT-4 25.7 µM | MDA-N 15.4 µM | EKVX > 100 µM | OVCAR-5 > 100 µM | MCF7 > 100 µM | OVCAR-4 30.9 µM | OVCAR-8 > 100 µM

O=C(O)COc1cccc2ccccc(=O)c12
inactive: UACC-62 > 100 µM | CAKI-1 > 100 µM | PC-3 > 100 µM | CCRF-CEM > 100 µM | HCT-116 > 100 µM | SK-MEL-2 > 100 µM | M14 > 100 µM | SNB-19 > 100 µM | HT-29 > 100 µM | SK-OV-3 > 100 µM | COLO 205 > 100 µM | HCC 2998 > 100 µM | SF-539 > 100 µM | MOLT-4 > 100 µM | MDA-N > 100 µM | EKVX > 100 µM | OVCAR-5 > 100 µM | MCF7 > 100 µM | OVCAR-4 > 100 µM | OVCAR-8 > 100 µM

S=C(/N=C1/NCC(CN2CCN(c3ccccc3)CC2)O1)Nc1ccccc1 (stereo not given)
inactive: UACC-62 39.7 µM | CAKI-1 73.3 µM | PC-3 39.9 µM | CCRF-CEM 30.5 µM | HCT-116 48.3 µM | SK-MEL-2 35.6 µM | M14 > 100 µM | SNB-19 > 100 µM | HT-29 42.2 µM | SK-OV-3 > 100 µM | COLO 205 28.6 µM | HCC 2998 57.9 µM | SF-539 34.4 µM | MOLT-4 27.5 µM | MDA-N > 100 µM | EKVX > 100 µM | OVCAR-5 > 100 µM | MCF7 38.4 µM | OVCAR-4 49.3 µM | OVCAR-8 > 100 µM

CC[C@H](C)[C@H]1NC(=O)[C@@H](NC(=O)[C@@H](CC(C)C)N(C)C(=O)C2CCCN2C(=O)[C@H](C)O)[C@@H](C)OC(=O)[C@H](Cc2ccc(OC)cc2)N(C)C(=O)[C@@H]2CCCN2C(=O)[C@H](CCCCNC(=O)OCc2ccccc2)NC(=O)[C@H](C)C(=O)[C@H](C(C)C)OC(=O)C[C@@H]1O (stereo not given in full)
inactive: UACC-62 8.2 µM | CAKI-1 16.8 µM | PC-3 3.93 µM | CCRF-CEM 6.46 µM | HCT-116 3.28 µM | SK-MEL-2 1.96 µM | M14 4.13 µM | SNB-19 2.66 µM | HT-29 3.37 µM | SK-OV-3 7.69 µM | COLO 205 3.91 µM | HCC 2998 2.73 µM | SF-539 12.8 µM | MOLT-4 4.79 µM | MDA-N 5.68 µM | EKVX 5.38 µM | OVCAR-5 7.28 µM | MCF7 2.77 µM | OVCAR-4 5.47 µM | OVCAR-8 19.7 µM

O=c1cc(/N=N\c2ccc(Cl)c(Cl)c2)[nH]c(=O)[nH]1
active: CCRF-CEM 0.033 µM
inactive: UACC-62 2.01 µM | CAKI-1 2.07 µM | PC-3 5.74 µM | HCT-116 1.75 µM | SK-MEL-2 5.2 µM | M14 1.93 µM | SNB-19 12.1 µM | HT-29 1.73 µM | SK-OV-3 15.8 µM | COLO 205 1.81 µM | HCC 2998 2.45 µM | SF-539 2.61 µM | MOLT-4 1.97 µM | MDA-N 1.8 µM | EKVX 1.6 µM | OVCAR-5 4.85 µM | MCF7 1.64 µM | OVCAR-4 2.91 µM | OVCAR-8 2.21 µM

CCCCNCC(=O)O[C@]1(CC)C(=O)OCc2c1cc1n(c2=O)Cc2cc3ccccc3nc2-1
active: UACC-62 0.0578 µM | CAKI-1 0.0647 µM | CCRF-CEM 0.0127 µM | HCT-116 0.407 µM | M14 0.231 µM | SNB-19 0.0542 µM | HT-29 0.838 µM | SK-OV-3 0.658 µM | SF-539 0.0832 µM | MOLT-4 0.017 µM | OVCAR-5 0.535 µM | MCF7 0.0998 µM | OVCAR-8 0.217 µM
inactive: PC-3 1.85 µM | SK-MEL-2 3.14 µM | COLO 205 1.7 µM | HCC 2998 1.74 µM | MDA-N 2.11 µM | EKVX 2.98 µM | OVCAR-4 7.19 µM

CC(C)CSCC1OC(n2cnc3c(N)nccc32)C(O)C1O (stereo not given)
inactive: UACC-62 > 100 µM | CAKI-1 > 100 µM | PC-3 > 100 µM | CCRF-CEM > 100 µM | HCT-116 > 100 µM | SK-MEL-2 > 100 µM | M14 > 100 µM | SNB-19 > 100 µM | HT-29 > 100 µM | SK-OV-3 > 100 µM | COLO 205 > 86.1 µM | HCC 2998 27.9 µM | SF-539 > 100 µM | MOLT-4 > 87.5 µM | MDA-N > 100 µM | EKVX 89.5 µM | OVCAR-5 > 100 µM | MCF7 > 100 µM | OVCAR-4 > 100 µM | OVCAR-8 > 100 µM

Nc1ccc2nc3n(c2c1)C(=O)c1ccccc1-3
inactive: UACC-62 > 100 µM | CAKI-1 > 100 µM | PC-3 > 100 µM | CCRF-CEM > 100 µM | HCT-116 > 100 µM | SK-MEL-2 > 100 µM | M14 > 100 µM | SNB-19 > 100 µM | HT-29 > 100 µM | SK-OV-3 > 100 µM | COLO 205 > 100 µM | HCC 2998 > 100 µM | SF-539 > 100 µM | MOLT-4 > 100 µM | MDA-N > 100 µM | EKVX > 100 µM | OVCAR-5 > 100 µM | MCF7 > 100 µM | OVCAR-4 > 100 µM | OVCAR-8 > 100 µM

CCC(C)N1CN(c2ccccc2)C2(CCN(CCCC3(c4ccc(F)cc4)OCCO3)CC2)C1=O (stereo not given)
inactive: UACC-62 23.3 µM | CAKI-1 > 52 µM | PC-3 6.05 µM | CCRF-CEM 3.6 µM | HCT-116 11.9 µM | SK-MEL-2 11.9 µM | M14 5.97 µM | SNB-19 12.4 µM | HT-29 2.87 µM | SK-OV-3 21 µM | COLO 205 3.75 µM | HCC 2998 12.9 µM | SF-539 5.5 µM | MOLT-4 2.61 µM | MDA-N 7.14 µM | EKVX 6.14 µM | OVCAR-5 8.61 µM | MCF7 3.3 µM | OVCAR-4 22.6 µM | OVCAR-8 7.64 µM

COC(=O)C(CCC1C=CN(S(=O)(=O)c2ccc(C)cc2)C1)/N=C/c1ccccc1 (stereo not given)
inactive: UACC-62 32.8 µM | CAKI-1 87.3 µM | PC-3 32.7 µM | CCRF-CEM 1.99 µM | HCT-116 33.4 µM | SK-MEL-2 20.1 µM | M14 42.7 µM | SNB-19 45 µM | HT-29 30.9 µM | SK-OV-3 80 µM | COLO 205 18.2 µM | HCC 2998 43.1 µM | SF-539 38.6 µM | MOLT-4 32.8 µM | MDA-N 38.3 µM | EKVX 42.2 µM | OVCAR-5 60.7 µM | MCF7 34.2 µM | OVCAR-4 46.1 µM | OVCAR-8 39.5 µM

COc1ccc(-n2c(Cn3nnc(-c4cccnc4)n3)nn(C3OC(COC(=O)c4ccccc4)C(OC(=O)c4ccccc4)C3OC(=O)c3ccccc3)c2=S)cc1 (stereo not given)
inactive: UACC-62 > 100 µM | CAKI-1 > 100 µM | PC-3 > 100 µM | CCRF-CEM > 100 µM | HCT-116 > 100 µM | SK-MEL-2 > 100 µM | M14 > 100 µM | SNB-19 74 µM | HT-29 50.9 µM | SK-OV-3 > 100 µM | COLO 205 > 100 µM | HCC 2998 > 100 µM | SF-539 > 100 µM | MOLT-4 > 100 µM | MDA-N > 100 µM | EKVX 39.4 µM | OVCAR-5 > 100 µM | MCF7 > 100 µM | OVCAR-4 > 100 µM | OVCAR-8 > 100 µM
